Our source for the KD and binding values is paper PMC9300104 (2021).

The test system of experiment [1] is Gdn49 P1P2mut (A14G, G44A, GA) (RNA, riboswitch) GGUUUGCAGGACGGCCUGCAAACGCCUCUUUUCACCGGGGACGACCCCA
The experiment in a line: 1H-1D NMR titration, U17 imino, Hill fit. To be noted: 5 mM Mg2+, 50 mM KCl; 25 mM potassium phosphate, pH 6.2, room temperature, 50 μM RNA, Hill n 1.38.

For experiment [2], the system named is Gdn49 P2mut (G44A, AA) (RNA, riboswitch) GGUUUGCAGGACGACCUGCAAACGCCUCUUUUCACCGGGGACGACCCCA
As to the kind of experiment: 1H-1D NMR titration, U17 imino, Hill fit. As to conditions: 5 mM Mg2+, 50 mM KCl; 25 mM potassium phosphate, pH 6.2, room temperature, 50 μM RNA, Hill n 1.01; two bound signals summed.

Experiment [3] has as its system Gdn13 G44A (RNA, riboswitch) GGGGACGACCCCA
The experiment in a line: 1H-1D NMR, chemical shift perturbation. To be noted: 5 mM Mg2+, 50 mM KCl; 25 mM potassium phosphate, pH 6.2, room temperature, 20 μM RNA, 1 mM Gdm+.

Experiment [4] has as its system Gdn49 wt (aptamer wild-type, AG) (RNA, riboswitch) GGUUUGCAGGACGACCUGCAAACGCCUCUUUUCACCGGGGACGGCCCCA
As to the kind of experiment: 1H-1D NMR titration, U17 imino, Hill fit. To be noted: 5 mM Mg2+, 50 mM KCl; 25 mM potassium phosphate, pH 6.2, room temperature, 50 μM RNA, Hill n 1.10; no binding without Mg2+.

Experiment [5] concerns Gdn23 wt (P1 wild-type, ACGA loop) (RNA, riboswitch) GGUUUGCAGGACGACCUGCAAAC
The experiment in a line: 1H-1D NMR titration, U17 imino, Hill fit. To be noted: 5 mM Mg2+, 50 mM KCl; 25 mM potassium phosphate, pH 6.2, room temperature, 50 μM RNA, Hill n 1.16.

Experiment [6] concerns Gdn13 wt (P2 wild-type, ACGG loop) (RNA, riboswitch) GGGGACGGCCCCA
As to the kind of experiment: 1H-1D NMR titration. As to conditions: 5 mM Mg2+, 50 mM KCl; 25 mM potassium phosphate, pH 6.2, room temperature; KD not detected; up to 8 mM Gdm+ (Table 2).

In experiment [7] the test system is Gdn49 P1mut (A14G, GG) (RNA, riboswitch) GGUUUGCAGGACGGCCUGCAAACGCCUCUUUUCACCGGGGACGGCCCCA
As to the kind of experiment: 1H-1D NMR titration, U17 imino, Hill fit. To be noted: 5 mM Mg2+, 50 mM KCl; 25 mM potassium phosphate, pH 6.2, room temperature, 50 μM RNA, Hill n 1.35.

What is called KD is the equilibrium constant for the complex coming apart. Higher therefore signals lower affinity.

In the case of `N=C(N)N`, the KD is 165.0 ± 14.3 µM in experiment [1]; 58.9 ± 8.1 µM in experiment [2]; 133.4 ± 3.9 µM in experiment [4]; 197.4 ± 8.8 µM in experiment [5]; 264.3 ± 27.8 µM in experiment [7]. In addition, the binding result is reported as “yes” in experiment [3] and “no” in experiment [6].
